Patent publication US9814712B2, “(S)-pirlindole and its pharmaceutically acceptable salts for use in medicine” (TECNIMEDE SOCIEDADE TECNICO-MEDICINAL S.A., priority 2014, dated 2017)

Tested on: spared nerve injury (SNI) model, mechanical allodynia
Experiment: Von Frey test of mechanical allodynia in the spared nerve injury (SNI) model
Type: in vivo, Sprague-Dawley rats
Details: SNI rats, 20 mg/kg i.p. daily, Von Frey monofilaments, naive and sham 15 g
From the text: For this purpose, the inventors have chosen the animal model designed by Decosterd and Woolf (Pain, 2000), which developed a partial denervation model, technically easy to perform and subject to minimal variability in the degree of damage produced. Most important was that this is a model that will enable a direct measurement of changes in both injured primary sensory neurons and in neighbouring intact sensory neurons so that their relative contribution to the pathophysiology of pain could be investigated. […] All procedures were performed on adult (200-250 g) male Sprague-Dawley rats. Under halothane (2%) anesthesia, the skin on the lateral surface of the thigh was incised and a section made directly through the biceps femoris muscle exposing the sciatic nerve and its three terminal branches: the sural, the common peroneal and the tibial nerves. The spared nerve injury procedure comprised an axotomy and ligation of the tibial and common peroneal nerves leaving the sural nerve intact. The common peroneal and the tibial nerves were tight-ligated with 5.0 silk and sectioned distal to the ligation, removing 2±4 mm of the distal nerve stump. Great care was taken to avoid any contact with or stretching of the intact sural nerve. Muscle and skin were closed in two layers. Sham controls involved exposure of the sciatic nerve and its branches without any lesion. The Von Frey test is a mechanical sensitivity assay that consists of thin calibrated plastic filaments, called Von Frey hairs, which are applied to the plantar surface of the hindpaw of the tested animal. The filaments present different degrees of stiffness that are used to determine the one that evokes a hindpaw withdrawal. Each filament, starting with the less stiff, is applied to the plantar surface of both hindpaws of each rat. The process is repeated with Von Frey hairs of increasing stiffness until one evokes a reflexive and sustained hindpaw withdrawal. This is defined as the withdrawal threshold, is measured in grams and is an indicator of mechanical allodynia. In the present example the animals were divided in 6 (six) groups (n=7 per group): naive control (negative control), sham control, SNI plus water (positive control), SNI plus (rac)-pirlindole 20 mg/kg, SNI plus (S)-pirlindole 20 mg/kg, SNI plus (R)-pirlindole 20 mg/kg and. After the application of surgical procedure to the groups of sham control, SNI plus water (positive control), SNI plus (rac)-pirlindole, SNI plus (S)-pirlindole and SNI plus (R)-pirlindole, the animals were confined during a 7 weeks (7 wk) period aiming the full induction of mechanical allodynia. Following a 3 week (3 wk), treatment period was started and water or one of the test items (rac-pirlindole, S-pirlindole and R-pirlindole) were administered by intraperitoneal (ip) route, on a daily basis. At the 2nd and 3rd week of treatment the mechanical allodynia was tested. The animals were placed on an elevated wire grid and the plantar surface of the paw stimulated with a series of ascending force Von Frey monofilaments. The threshold was taken as the lowest force that evoked a brisk withdrawal response to one of the repetitive stimuli (Tal and Bennett, 1994). The lateral and medial plantar surfaces of the paw as well as its dorsal surface were tested.

[1] = wk2 of treatment, SNI plus water 0.41 g
[2] = wk3 of treatment, SNI plus water 0.14 g

| Compound | mean lowest force that evoked a brisk withdrawal response [1] [g] | mean lowest force that evoked a brisk withdrawal response [2] [g] |
| --- | --- | --- |
| Cc1ccc2c(c1)c1c3n2CCNC3CCC1 (racemic) [(rac)-pirlindole, 2,3,3a,4,5,6-hexahydro-8 methyl-1H-pyrazino [3,2,1-j, k] carbazole] | 3.50 | 2.08 |
| Cc1ccc2c(c1)c1c3n2CCN[C@@H]3CCC1 [(R)-pirlindole] | 3.08 | 1.39 |
| Cc1ccc2c(c1)c1c3n2CCN[C@H]3CCC1 [(S)-pirlindole] | 4.51 | 7.43 |
